Data on eleven compounds can be found in patent US12509452B2, “Substituted-isoxazoline-containing aromatic compound, preparation method therefor, herbicidal composition and use thereof” (QINGDAO KINGAGROOT CHEMICAL COMPOUND CO., LTD., priority 2019, dated 2025).

Experiment in all cases: weeding effect in post-emergence stage
Common to all, as to format: in vivo

One test concerns Conyza japonica. The source says:
(§1) The activity level criteria for plant damage (i.e., growth control rate) are as follows: • Level 5: growth control rate is above 85%; • Level 4: growth control rate is greater than or equal to 60% and less than 85%; • Level 3: growth control rate is greater than or equal to 40% and less than 60%; • Level 2: growth control rate is greater than or equal to 20% and less than 40%; • Level 1: growth control rate is greater than or equal to 5% and less than 20%; • Level 0: growth control rate is less than 5%.
(§2) The above growth control rates are fresh weight control rates.
(§3) Experiment on weeding effect in post-emergence stage:
(§4) Monocotyledonous and dicotyledonous weed seeds (Descurainia sophia, Capsella bursa-pastoris, Abutilon theophrasti, Galium aparine, Stellaria media, Lithospermum arvense, Rorippa indica, Alopecurus aequalis, Alopecurus japonicus, Beckmannia syzigachne, Sclerochloa dura, Conyza Canadensis, Phleum paniculatum, Veronica didyma Tenore, Bromus japonicus, Aegilops tauschii, Phalaris arundinacea, Amaranthus retroflexus, Chenopodium album, Commelina communis, Sonchus arvensis, Convolvulus arvensis, Cirsium setosum, Solanum nigrum, Acalypha australis, Digitaria sanguinalis, Echinochloa crusgalli, Setaria viridis, Setaria glauca, Leptochloa chinensis, Monochoria vaginalis, Sagittaria trifolia, Scirpus juncoides, Cyperus rotundus, Cyperus iria, Cyperus difformis, Fimbristylis, Portulaca oleracea, Xanthium sibiricum, Pharbitis nil, Conyza japonica, etc.) and major crop seeds (wheat, corn, rice, soybean, cotton, oilseed rape, millet, sorghum, potato, sesame, ricinus, etc.) were placed in plastic pots filled with soil, then covered with 0.5-2 cm of soil, allowed to grow in a good greenhouse environment. After 2 weeks of sowing, the test plants were treated in the 2-3 leaf stage. The tested compounds of the present invention were respectively dissolved in acetone, then added with Tween 80 and 1.5 liter/ha of emulsifiable concentrate of methyl oleate as synergist, diluted with a certain amount of water to obtain a solution with a certain concentration, and sprayed with a spray tower onto the plants. After the application, the plants were cultured for 3 weeks in the greenhouse, and then the experimental results of the weeding were counted. The doses of the used compounds were 500, 250, 125, 60, 15, 7.5 g a.i./ha, and the averages were obtained by repeating for three times.

Another test relates to Alopecurus japonicus.
From the text: as §1, §2, §3, §4

In another test the test system is Rorippa indica.
From the text: as §1, §2, §3, §4

Another test relates to Beckmannia syzigachne.
From the text: as §1, §2, §3, §4

Consider `COC(=O)C1(c2ccccc2)CC(c2cc(-n3c(=O)n(C)c(=S)n(C)c3=O)c(F)cc2Cl)=NO1` (racemic) [Compound 56], for which, in the test on Conyza japonica (dose 125 g a.i./ha), the “weeding effect in post-emergence stage, Conyza japonica (activity level)” value is 5 (Level 5: growth control rate is above 85%). In addition, the “weeding effect in post-emergence stage, Alopecurus japonicus (activity level)” value in the test on Alopecurus japonicus (dose 125 g a.i./ha) is 5 (Level 5: growth control rate is above 85%). Besides, in the test on Rorippa indica (dose 125 g a.i./ha), the “weeding effect in post-emergence stage, Rorippa indica (activity level)” value (from here on “weeding effect … Rorippa indica (activity level)”) is listed as 5 (Level 5: growth control rate is above 85%). Further, the “weeding effect in post-emergence stage, Beckmannia syzigachne (activity level)” value in the test on Beckmannia syzigachne (dose 125 g a.i./ha) is 5 (Level 5: growth control rate is above 85%).

As to `COC(=O)C1(Cc2ccccc2)CC(c2cc(-n3c(=O)n(C)c(=S)n(C)c3=O)c(F)cc2Cl)=NO1` (racemic) [Compound 59], the “weeding effect in post-emergence stage, Conyza japonica (activity level)” value in the test on Conyza japonica (dose 125 g a.i./ha) was 5 (Level 5: growth control rate is above 85%). Besides, the “weeding effect in post-emergence stage, Alopecurus japonicus (activity level)” value in the test with Alopecurus japonicus (dose 125 g a.i./ha) was 5 (Level 5: growth control rate is above 85%). Moreover, the “weeding effect … Rorippa indica (activity level)” value with Rorippa indica (dose 125 g a.i./ha) is on record as 5 (Level 5: growth control rate is above 85%). The “weeding effect in post-emergence stage, Beckmannia syzigachne (activity level)” value in the test on Beckmannia syzigachne (dose 125 g a.i./ha) is on record as 5 (Level 5: growth control rate is above 85%).

In the case of `CCOC(=O)C1(CC)CC(c2cc(-n3c(=O)cc(C(F)(F)F)n(C)c3=O)c(F)cc2Cl)=NO1` (racemic) [Compound 105], the “weeding effect in post-emergence stage, Conyza japonica (activity level)” value with Conyza japonica (dose 15 g a.i./ha) and in the test on Conyza japonica (dose 125 g a.i./ha) was 5 (Level 5: growth control rate is above 85%) in each case. The “weeding effect in post-emergence stage, Alopecurus japonicus (activity level)” value in the test with Alopecurus japonicus (dose 15 g a.i./ha) and with Alopecurus japonicus (dose 125 g a.i./ha) was 5 (Level 5: growth control rate is above 85%) each time. The “weeding effect … Rorippa indica (activity level)” value in the test on Rorippa indica (dose 15 g a.i./ha) and in the test with Rorippa indica (dose 125 g a.i./ha) was 5 (Level 5: growth control rate is above 85%) throughout. Further, the “weeding effect in post-emergence stage, Beckmannia syzigachne (activity level)” value in the test on Beckmannia syzigachne (dose 15 g a.i./ha) and with Beckmannia syzigachne (dose 125 g a.i./ha) was 5 (Level 5: growth control rate is above 85%) in each case.

For the compound `CCOC(=O)C1(C2CC2)CC(c2cc(-n3c(=O)cc(C(F)(F)F)n(C)c3=O)c(F)cc2Cl)=NO1` (racemic) [Compound 119], the “weeding effect in post-emergence stage, Conyza japonica (activity level)” value with Conyza japonica (dose 15 g a.i./ha) and in the test on Conyza japonica (dose 125 g a.i./ha) was 5 (Level 5: growth control rate is above 85%) throughout. Further, the “weeding effect in post-emergence stage, Alopecurus japonicus (activity level)” value in the test with Alopecurus japonicus (dose 15 g a.i./ha) and with Alopecurus japonicus (dose 125 g a.i./ha) was 5 (Level 5: growth control rate is above 85%) throughout. Besides, the “weeding effect … Rorippa indica (activity level)” value in the test on Rorippa indica (dose 15 g a.i./ha) and with Rorippa indica (dose 125 g a.i./ha) was 5 (Level 5: growth control rate is above 85%) in each case. For the same compound, the “weeding effect in post-emergence stage, Beckmannia syzigachne (activity level)” value in the test on Beckmannia syzigachne (dose 15 g a.i./ha) and with Beckmannia syzigachne (dose 125 g a.i./ha) was 5 (Level 5: growth control rate is above 85%) in each case.

`CCOC(=O)C1(C2CCC2)CC(c2cc(-n3c(=O)cc(C(F)(F)F)n(C)c3=O)c(F)cc2Cl)=NO1` (racemic) [Compound 126]: the “weeding effect in post-emergence stage, Conyza japonica (activity level)” value in the test on Conyza japonica (dose 125 g a.i./ha) is given as 5 (Level 5: growth control rate is above 85%). Besides, the “weeding effect in post-emergence stage, Alopecurus japonicus (activity level)” value with Alopecurus japonicus (dose 125 g a.i./ha) was 5 (Level 5: growth control rate is above 85%). For the same compound, the “weeding effect … Rorippa indica (activity level)” value in the test with Rorippa indica (dose 125 g a.i./ha) is 5 (Level 5: growth control rate is above 85%). In addition, in the test on Beckmannia syzigachne (dose 125 g a.i./ha), the “weeding effect in post-emergence stage, Beckmannia syzigachne (activity level)” value is given as 5 (Level 5: growth control rate is above 85%).

`COC(=O)C1(F)CC(c2cc(-n3c(=O)cc(C(F)(F)F)n(C)c3=O)c(F)cc2Cl)=NO1` (racemic) [Compound 129]: the “weeding effect in post-emergence stage, Conyza japonica (activity level)” value in the test on Conyza japonica (dose 125 g a.i./ha) is 5 (Level 5: growth control rate is above 85%). In addition, in the test with Alopecurus japonicus (dose 125 g a.i./ha), the “weeding effect in post-emergence stage, Alopecurus japonicus (activity level)” value was 5 (Level 5: growth control rate is above 85%). In addition, the “weeding effect … Rorippa indica (activity level)” value with Rorippa indica (dose 125 g a.i./ha) is recorded as 5 (Level 5: growth control rate is above 85%). For the same compound, the “weeding effect in post-emergence stage, Beckmannia syzigachne (activity level)” value in the test with Beckmannia syzigachne (dose 125 g a.i./ha) is 5 (Level 5: growth control rate is above 85%).

In the case of `CCOC(=O)C1(CF)CC(c2cc(-n3c(=O)cc(C(F)(F)F)n(C)c3=O)c(F)cc2Cl)=NO1` (racemic) [Compound 132], in the test on Conyza japonica (dose 125 g a.i./ha), the “weeding effect in post-emergence stage, Conyza japonica (activity level)” value was 5 (Level 5: growth control rate is above 85%). Also, in the test on Alopecurus japonicus (dose 125 g a.i./ha), the “weeding effect in post-emergence stage, Alopecurus japonicus (activity level)” value is reported as 5 (Level 5: growth control rate is above 85%). In addition, the “weeding effect … Rorippa indica (activity level)” value with Rorippa indica (dose 125 g a.i./ha) is reported as 5 (Level 5: growth control rate is above 85%). Besides, the “weeding effect in post-emergence stage, Beckmannia syzigachne (activity level)” value in the test with Beckmannia syzigachne (dose 125 g a.i./ha) is on record as 5 (Level 5: growth control rate is above 85%).

As to `CCOC(=O)C1(C(F)F)CC(c2cc(-n3c(=O)cc(C(F)(F)F)n(C)c3=O)c(F)cc2Cl)=NO1` (racemic) [Compound 134], the “weeding effect in post-emergence stage, Conyza japonica (activity level)” value in the test with Conyza japonica (dose 125 g a.i./ha) was 5 (Level 5: growth control rate is above 85%). In addition, the “weeding effect in post-emergence stage, Alopecurus japonicus (activity level)” value in the test with Alopecurus japonicus (dose 125 g a.i./ha) is 5 (Level 5: growth control rate is above 85%). Besides, the “weeding effect … Rorippa indica (activity level)” value with Rorippa indica (dose 125 g a.i./ha) is on record as 5 (Level 5: growth control rate is above 85%). In addition, the “weeding effect in post-emergence stage, Beckmannia syzigachne (activity level)” value with Beckmannia syzigachne (dose 125 g a.i./ha) is given as 5 (Level 5: growth control rate is above 85%).

For `CCOC(=O)C1(C(F)(F)F)CC(c2cc(-n3c(=O)cc(C(F)(F)F)n(C)c3=O)c(F)cc2Cl)=NO1` (racemic) [Compound 135], the “weeding effect in post-emergence stage, Conyza japonica (activity level)” value with Conyza japonica (dose 125 g a.i./ha) was 5 (Level 5: growth control rate is above 85%). The “weeding effect in post-emergence stage, Alopecurus japonicus (activity level)” value in the test with Alopecurus japonicus (dose 125 g a.i./ha) is reported as 5 (Level 5: growth control rate is above 85%). The “weeding effect … Rorippa indica (activity level)” value with Rorippa indica (dose 125 g a.i./ha) was 5 (Level 5: growth control rate is above 85%). Besides, in the test on Beckmannia syzigachne (dose 125 g a.i./ha), the “weeding effect in post-emergence stage, Beckmannia syzigachne (activity level)” value was 5 (Level 5: growth control rate is above 85%).

Regarding `CCOC(=O)C1(CCF)CC(c2cc(-n3c(=O)cc(C(F)(F)F)n(C)c3=O)c(F)cc2Cl)=NO1` (racemic) [Compound 136], in the test with Conyza japonica (dose 125 g a.i./ha), the “weeding effect in post-emergence stage, Conyza japonica (activity level)” value is 5 (Level 5: growth control rate is above 85%). Moreover, the “weeding effect in post-emergence stage, Alopecurus japonicus (activity level)” value in the test on Alopecurus japonicus (dose 125 g a.i./ha) was 5 (Level 5: growth control rate is above 85%). Besides, the “weeding effect … Rorippa indica (activity level)” value in the test on Rorippa indica (dose 125 g a.i./ha) was 5 (Level 5: growth control rate is above 85%). For the same compound, in the test with Beckmannia syzigachne (dose 125 g a.i./ha), the “weeding effect in post-emergence stage, Beckmannia syzigachne (activity level)” value is 5 (Level 5: growth control rate is above 85%).

For the compound `CCOC(=O)C1(CO)CC(c2cc(-n3c(=O)cc(C(F)(F)F)n(C)c3=O)c(F)cc2Cl)=NO1` (racemic) [Compound 142], the “weeding effect in post-emergence stage, Conyza japonica (activity level)” value in the test on Conyza japonica (dose 125 g a.i./ha) was 5 (Level 5: growth control rate is above 85%). The “weeding effect in post-emergence stage, Alopecurus japonicus (activity level)” value with Alopecurus japonicus (dose 125 g a.i./ha) is recorded as 5 (Level 5: growth control rate is above 85%). Further, in the test with Rorippa indica (dose 125 g a.i./ha), the “weeding effect … Rorippa indica (activity level)” value was 5 (Level 5: growth control rate is above 85%). For the same compound, in the test on Beckmannia syzigachne (dose 125 g a.i./ha), the “weeding effect in post-emergence stage, Beckmannia syzigachne (activity level)” value is on record as 5 (Level 5: growth control rate is above 85%).
